Experimental data from patent US10647752B2, “Polypeptides capable of inhibiting the binding between leptin and Neuropilin-1” (INSERM (Institut National de la Sante et de la Recherche …, priority 2015, dated 2020).
“Also recorded” adds a separate entry of the source.

Key:
[1] = target: T1, NRP-1 (Homo sapiens, UniProt O14786); experiment: Bio-layer interferometry (BLI) protein:protein interaction with NRP-1; assay type: binding; settings: for interaction (binding) with NRP-1 by BLI: recombinant proteins, extracellular domain of recombinant NRP-1 for the peptide; for competition between leptin and VEGF for binding to NRP-1: BLI competition experiment
T1 construct: the extracellular domain of the recombinant protein NRP-1 from RnD systems; purchased RnD systems
Experimental: Bio-Layer Interferometry Bio-layer interferometry (BLI) is a label-free technique that is sensitive to an increase of mass bound to the biosensor enabling protein-protein interaction characterization. Ligands preparation: proteins were incubated in a PBS buffer with a 1:3 ratio molar ratio of biotin (biotin-PEG4-NHS from Pierce EZ kit, prepared following the manufacturer's instructions). Free biotin was removed using a desalting column (Pierce). The biotinylated protein (called ligand) was immobilized onto streptavidin biosensor tips and dipped into wells containing the buffer with the analyte of interest (association) or without (dissociation). Experimental conditions were as follow: total volume in each well: 200 μl; shake speed: 1,000 rpm. For simple protein:protein interactions an association phase was followed by a dissociation phase. For competition experiments, the association phase was followed by another association phase with a second analyte instead of a dissociation phase. Sensorgrams were background corrected, smoothed with the Savitzky-Golay algorithm and analyzed using OctetRED instrument software (ForteBio Data Analysis version 7.1). Experimental sensorgrams were first fit to a 1:1 model. The 1:1 model was accepted if the Chi^2 test was below 3 and the R^2 was above 0.9. When the 1:1 model was rejected, the model with the lowest Chi^2 and the highest R^2 was then selected.

[2] = system: NRP-1/OBR complex; experiment: NRP-1/OBR complex detection in MDA-MB231 breast cancer cell line by proximity ligation assay (PLA); assay type: cell-based; settings: MDA-MB231 cultivated in normal human serum, Avastin 40 μg/ml for 48 h, compared to untreated cells
Experimental: NRP-1 and OBR Complex Detection in MBA-MB231 Breast Cancer Cell Line by Immunocytochemistry Using a PLA Technology
The detection of NRP-1/OBR complex in human MDA-MB231 breast cancer cell line was assessed by proximity ligation assay (PLA) or duolink technology (www.olink.com). The detection of the NRP-1/OBR complex was assessed on MDA-MB231 cell line cultivated in normal human serum (human male AB plasma, USA origin, MDL number MFCD00165829 H4522 Sigma) and treated or not with Avastin 40 μg/ml final concentration for 48 h. The goal by using human serum was to mimic a physiologic condition during therapy with Avastin. The immunostained samples were analysed by the acquisition of the Z stacks through confocal microscopy on Zeiss LSM 700, Inverted confocal microscope. The acquired images were analyzed using Image J software for the quantification of NRP-1/OBR complex expressed by cells.

[3] = system: MDA-MB231 breast cancer cell line; experiment: In vitro cell migration of MDA-MB231 breast cancer cell line; assay type: cell-based, human
[4] = system: Serine/Threonine casein kinase2 (CK2); experiment: CK2 inhibition in breast cancer cell lines: NRP-1 and JAK2 phosphorylation and NRP-1/OBR complex formation; assay type: cell-based; settings: MDA-MB231 / T47D breast cancer cell lines

Row | Molecule | NRP-1 and JAK2 phosphorylation [4] | formation of the NRP-1/OBR complex [4] | also measured
1 | ENLRDLLHVLAFSKSCHLPWASGLETL (listed as Homo sapiens) [SEQ ID:3] | – | – | interaction (binding) with NRP-1 by BLI [1]: validated by BLI
2 | Avastin: Anti-VEGF (bevacizumab) antibody | – | – | number of NRP-1/OBR complex [2]: increase of NRP-1/OBR complex detection; also recorded: high number of NRP-1/OBR complex; cell migration [3]: induces in vitro cell migration; also recorded: increased MDA-MB231 cell migration
3 | VEGF | – | – | competition between leptin and VEGF for binding to NRP-1 [1]: does not prevent leptin binding to NRP-1
4 | leptin: cytokine-like hormone mainly produced by adipocytes; recombinant protein | – | – | competition between leptin and VEGF for binding to NRP-1 [1]: do not compete with VEGF binding; interaction (binding) with NRP-1 by BLI [1]: direct interaction
5 | OC[C@H]1O[C@@H](n2cnc3cc(Cl)c(Cl)cc32)[C@H](O)[C@@H]1O [DRB] | prevented | prevented | –
6 | O=C(O)c1ccc2c(c1)nc(Nc1cccc(Cl)c1)c1ccncc12 [CX4945] | prevented | prevented | –
7 | Brc1c(Br)c(Br)c2n[nH]nc2c1Br [TBB] | prevented | prevented | –
